Measurements as given in US20140018375A1, “BIOLOGICAL MARKERS PREDICTIVE OF ANTI-CANCER RESPONSE TO EPIDERMAL GROWTH FACTOR RECEPTOR KINASE INHIBITORS” (priority 2005, published 2014).
“Also recorded” adds a separate entry of the source. Like-named read-outs stand apart in the source and are kept apart here.

Legend:
H292 = assay: Cell-Titer Glo cell viability assay, H292; type: cell-based, human
Description: (§1) On day 1, NSCLC cells were plated 3-5×10^4 cells/well in 96 well plates in their normal serum-containing media. […] Manufacturers instructions were followed for the assay. Experiments were conducted in triplicate to at least an n=3. Data was normalized as a percentage inhibition compared to DMSO only control wells and concentration-response analysis was performed using Prizm graphing software.
(§2) The concentration response curves were analyzed in two ways.

SW1573 = assay: Cell-Titer Glo cell viability assay, SW1573; type: cell-based, human
Description: as §1, §2

H322 = assay: Cell-Titer Glo cell viability assay, H322; type: cell-based, human
Description: as §1, §2

H358 = assay: Cell-Titer Glo cell viability assay, H358; type: cell-based, human
Description: as §1, §2

A549 = assay: Cell-Titer Glo cell viability assay, A549; type: cell-based, human
Description: as §1, §2

H460 = assay: Cell-Titer Glo cell viability assay, H460; type: cell-based, human; details: for EC50: Homo sapiens
Description: as §1, §2

NSCLC cells = assay: anti-phosphotyrosine capture and LC-MS/MS (iTRAQ) after erlotinib exposure; type: cell-based, human
Description: Anti-phosphotyrosine immunoaffinity resins were prepared by covalent coupling to a solid support by standard methods. Freshly prepared immunoaffinity resins were used for each biological experiment to maximize binding and reduce carryover. Briefly, anti-phosphotyrosine antibodies were crosslinked to solid-support and non-covalently bound IgG removed by low pH elution. […] Proteins isolated by anti-phosphotyrosine affinity selection were measured by iTRAQ labeling of tryptic peptides as previously described (Ross et al, (2004) Mol Cell Proteomics 3(12) 1154-1169; Haley et al., 2004). Peptide masses and sequence information were determined by electrospray LC-MS/MS and database searching. Peptides with confidence levels of >=90% with scores of >=20 were considered, after which spectra were inspected manually. […]. Proteins were clustered by temporal log2 protein expression ratios using Euclidian hierarchical methods and self-organizing maps.
Proteins associated with survival signaling and epithelial-mesenchymal cell phenotypes were isolated and measured using multiple experimental approaches, including mass spectrometry. Individual protein abundance, or extent of phosphorylation on tyrosine residues, was compared between different NSCLC tumor lines. Mass spectrometry approaches additionally included cellular fractionation, phosphotyrosine protein-capture and phosphopeptide-capture using four NSCLC model cell lines. The NSCLC lines were chosen to reflect a range of sensitivities to pharmacological EGFR inhibition both in vitro and in xenografts. These NSCLC lines also span both epithelial and mesenchymal-like tumor phenotypes arising from EMT-like transitions occurring during tumor progression. Two MS quantitation approaches were pursued. First, between-cell comparisons were performed where membrane-particulate and cytosolic fractions were isolated and differences in protein abundance measured. In both cases the iTRAQ peptide labeling method was used to allow relative quantitation of proteins isolated under the different biological conditions. […]. Protein samples were proteolytically cleaved with trypsin, separately labeled with isobaric stable isotope mass labels (iTRAQ; Ross et al., 2005; Petti et al. 2005), combined and subjected to LC-MS/MS. Protein identification criteria conformed to the guidelines proposed by Bradshaw et al. (Bradshaw R. A., Burlingame A. L., Carr S., and Aebersold R. (2006) Mol Cell Proteomics 5:787-788).

H292 xenograft = assay: NSCLC xenograft tumor growth inhibition, H292; type: in vivo, mouse; details: oral gavage once a day for 14 days
Description: (§3) Female CD-1 nu/nu mice (Charles River Laboratories) were implanted with harvested NSCLC tumor cells in a single subcutaneous site on the flank of the mice in the axillary region. Tumors were allowed to grow to 200±50 mm^3, at which time the animals were sorted into treatment groups of 8 animals per group based on weight (±1 g body weight) and tattooed on the tail for permanent identification. Tumor volumes and body weights were determined twice weekly. The tumor volume was determined by measuring in two directions with vernier calipers and calculated using the formula: Tumor volume=(length×width^2)/2. The data were plotted as the % change in mean values of tumor volume and body weight for each group. […]. Tumor growth inhibition studies were dosed by oral gavage once a day for 14 days. Pharmacodynamic studies were dosed by oral gavage for 1-3 days with tumors from 4 control and 4 TARCEVA™ treated animals harvested and snap frozen in liquid nitrogen 4 hours after dosing on Days 1, 2 and 3.

A549 xenograft = assay: NSCLC xenograft tumor growth inhibition, A549; type: in vivo, mouse; details: oral gavage once a day for 14 days
Description: as §3

H1703 = assay: Cell-Titer Glo cell viability assay, H1703; type: cell-based, human; details: for EC50: Homo sapiens
Description: as §1, §2

Calu6 xenograft = assay: NSCLC xenograft tumor growth inhibition, Calu6; type: in vivo, mouse; details: oral gavage once a day for 14 days
Description: as §3

H441 xenograft = assay: NSCLC xenograft tumor growth inhibition, H441; type: in vivo, mouse; details: oral gavage once a day for 14 days
Description: as §3

H358 xenograft = assay: NSCLC xenograft tumor growth inhibition, H358; type: in vivo, mouse; details: oral gavage once a day for 14 days
Description: as §3

H460 xenograft = assay: NSCLC xenograft tumor growth inhibition, H460; type: in vivo, mouse; details: oral gavage once a day for 14 days
Description: as §3

MiaPaca2 = assay: growth inhibition of pancreatic cell line in vitro, MiaPaca2; type: cell-based
Source text: (§4) We next extended these studies to ask whether these observations would be applicable to other cancer cell types.

H441 = assay: Cell-Titer Glo cell viability assay, H441; type: cell-based, human
Description: as §1, §2

Calu6 = assay: Cell-Titer Glo cell viability assay, Calu6; type: cell-based, human; details: for EC50: Homo sapiens
Description: as §1, §2

BxPC3 = assay: growth inhibition of pancreatic cell line in vitro, BxPC3; type: cell-based
Source text: as §4

C#Cc1cccc(Nc2ncnc3cc(OCCOC)c(OCCOC)cc23)c1 [erlotinib, [6,7-bis(2-methoxyethoxy)-4-quinazolin-4-yl]-(3-ethynylphenyl)amine]
Max. Inhibition (%) (H292): 69%
Classification of sensitivity to erlotinib-mediated growth inhibition (H292; H292, in vitro and in xenografts): Sensitive
EC50 (H292; Homo sapiens, NCI-H292, 72 h, read-out: EC50 Half Maximal): 100 nM
Max. Inhibition (%) (SW1573): 25%
EC50 (SW1573; Homo sapiens, SW1573, 72 h, read-out: EC50 Half Maximal): 9 µM
Classification of sensitivity to erlotinib-mediated growth inhibition (SW1573; SW1573): relatively insensitive
Max. Inhibition (%) (H322): 80%
Classification of sensitivity to erlotinib-mediated growth inhibition (H322; H322): Sensitive
EC50 (H322; Homo sapiens, NCI-H322, 72 h, read-out: EC50 Half Maximal): 400 nM
Max. Inhibition (%) (H358): 72%
Classification of sensitivity to erlotinib-mediated growth inhibition (H358; H358, in vitro and in xenografts): Sensitive
EC50 (H358; Homo sapiens, NCI-H358, 72 h, read-out: EC50 Half Maximal): 600 nM
Max. Inhibition (%) (A549): 30%
Classification of sensitivity to erlotinib-mediated growth inhibition (A549; A549, in vitro and in xenografts): intermediate sensitivity
EC50 (A549; Homo sapiens, A549, 72 h, read-out: EC50 Half Maximal): 5 µM
Max. Inhibition (%) (H460): 30%
Classification of sensitivity to erlotinib-mediated growth inhibition (H460; H460, in vitro and in xenografts): relatively insensitive
EC50 (H460; NCI-H460, 72 h, read-out: EC50 Half Maximal): 5 µM
EC50 (H460; NCI-H460, read-out: EC50, growth inhibition in vitro): > 10 µM
phosphocapture of the p21-activated kinase PAK2 (NSCLC cells; H1703 cells, 1, 4 and 24 hours): stimulated at all time points
regulation of Actin-like protein-6A and β-actin (NSCLC cells; cells with an epithelial phenotype, within 1 hour of erlotinib exposure (1 μM)): upregulation
regulation of α- and γ-actins and vimentin phosphoproteins (NSCLC cells; mesenchymal-like NSCLC cells, within 1 hour of erlotinib exposure (1 μM)): Down regulation
phosphocapture of Rho-GEF7 (NSCLC cells; mesenchymal-like cells): significant erlotinib-dependent increase
tyrosine phosphorylation for Erk2, ubiquitin and the tyrosine phosphatases SHP-2 and BDP-18 (NSCLC cells; primarily associated with an epithelial cell state): downregulation
% TGI Day 15 (H292 xenograft): 85%
% TGI Day 15 (A549 xenograft): 49%
Max. Inhibition (%) (H1703): 30%
Classification of sensitivity to erlotinib-mediated growth inhibition (H1703; H1703): relatively insensitive
EC50 (H1703; NCI-H1703, 72 h, read-out: EC50 Half Maximal): 7 µM
EC50 (H1703; NCI-H1703, read-out: EC50, growth inhibition in vitro): > 10 µM
% TGI Day 15 (Calu6 xenograft): 0%
% TGI Day 15 (H441 xenograft): 60%
% TGI Day 15 (H358 xenograft): 25%
% TGI Day 15 (H460 xenograft): 6%
sensitivity to growth inhibition by erlotinib (MiaPaca2): relatively insensitive
Max. Inhibition (%) (H441): 55%
Classification of sensitivity to erlotinib-mediated growth inhibition (H441; H441, in vitro and in xenografts): Sensitive; also recorded: intermediate
EC50 (H441; Homo sapiens, NCI-H441, 72 h, read-out: EC50 Half Maximal): 2000 nM
Max. Inhibition (%) (Calu6): 46%
Classification of sensitivity to erlotinib-mediated growth inhibition (Calu6; Calu6, in vitro and in xenografts): relatively insensitive
EC50 (Calu6; Calu-6, 72 h, read-out: EC50 Half Maximal): > 10 µM
EC50 (Calu6; Calu-6, read-out: EC50, growth inhibition in vitro): > 10 µM
sensitivity to growth inhibition by erlotinib (BxPC3): sensitive
